Measurements from US8940739B2, “Compound of a reverse-turn mimetic and a production method and use therefor” (JW Pharmaceutical Corporation, priority 2010, dated 2015).

Each compound was assayed against cDNA-expressed human hepatic CYP3A4 (Homo sapiens (Human), UniProt P08684) (assay: Measurement of CYP (IC50 of P450 CYP3A4), BFC substrate). Settings: 20 minutes.
Chain of cDNA-expressed human hepatic CYP3A4 (P08684 whole entry): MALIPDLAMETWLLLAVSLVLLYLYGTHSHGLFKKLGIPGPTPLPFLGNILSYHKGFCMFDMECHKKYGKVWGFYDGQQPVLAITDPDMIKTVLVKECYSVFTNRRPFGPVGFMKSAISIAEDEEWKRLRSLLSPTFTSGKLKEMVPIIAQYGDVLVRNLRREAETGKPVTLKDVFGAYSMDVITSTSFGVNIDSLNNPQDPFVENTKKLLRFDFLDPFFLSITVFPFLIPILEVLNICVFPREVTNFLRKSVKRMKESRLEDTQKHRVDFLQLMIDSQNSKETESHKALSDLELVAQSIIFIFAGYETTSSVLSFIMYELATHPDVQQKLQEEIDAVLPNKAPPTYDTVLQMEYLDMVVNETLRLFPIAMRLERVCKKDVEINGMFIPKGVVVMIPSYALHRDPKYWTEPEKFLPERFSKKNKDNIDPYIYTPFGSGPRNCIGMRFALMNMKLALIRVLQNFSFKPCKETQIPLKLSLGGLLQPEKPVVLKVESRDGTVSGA
Format: in vitro ADME
Experimental: The compounds of the present invention had lower P450 CYP3A4 inhibitory activity (higher IC50). Lower CYP3A4 inhibitory activity means that the compounds of the present invention cause fewer side-effects from the pharmacological point of view.
This assay was performed in a 200 l volume in 96-well microtiter plates using cDNA-expressed human hepatic CYP3A4 (supersome, BD Gentest™ #456202). As a substrate for CYP3A4, 7-benzyloxy-4-trifluoromethyl-coumarin (BFC) was used. The compounds of Examples 1 to 5 and the substrate BFC were dissolved in 100% acetonitrile. The final volume of acetonitrile of the incubation mixture was less than 1% (volume/volume). A potassium phosphate buffer (pH 7.4, final concentration 0.1M), MgCl2 (final concentration 8.3 mM), EDTA (final concentration 1.67 mM), an inventive compound stock solution, CYP3A4 supersome, and NADPH (final concentration 0.25 mM) were added to each well. The reaction was initiated by adding the substrate (BFC, final concentration 30 µM) at 37. The incubation was performed for 20 minutes and then the reaction was terminated by the addition of 75 μl of acetonitrile: 0.5 M tris-base=4:1 (volume/volume).
Then, a fluorescent signal was measured using a fluorometer. A BFC metabolite, 7-hydroxy-4-trifluoromethyl-coumarin, was measured using an excitation wavelength of 409 nm and an emission wavelength of 530 nm.
Work on `C=CCN1CC(=O)N2[C@@H](Cc3ccc(O)cc3)C(=O)N(Cc3cccc4c(C(=O)N5CCC(O)CC5)cn(C)c34)C[C@@H]2N1C(=O)NCc1ccccc1` [Compound E-51] yielded an IC50 of 10.7 µM. Compound `C=CCN1CC(=O)N2[C@@H](Cc3ccc(O)cc3)C(=O)N(Cc3cccc4c(C(=O)N5CCC(C(=O)N(C)CCN(C)C)CC5)cn(C)c34)C[C@@H]2N1C(=O)NCc1ccccc1` [Compound E-54] has an IC50 of 4.97 µM. Compound `C=CCN1CC(=O)N2[C@@H](Cc3ccc(O)cc3)C(=O)N(Cc3cccc4c(C(=O)N5CCC(NC(=O)CCO)CC5)cn(C)c34)C[C@@H]2N1C(=O)NCc1ccccc1` [Compound E-57] has an IC50 of 7.65 µM. `C=CCN1CC(=O)N2[C@@H](Cc3ccc(O)cc3)C(=O)N(Cc3cccc4c(C(=O)N5CCC(NC(=O)c6ccc(N7CCN(C)CC7)cc6)CC5)cn(C)c34)C[C@@H]2N1C(=O)NCc1ccccc1` [Compound E-60] showed an IC50 of 6.02 µM. With `C=CCN1CC(=O)N2[C@@H](Cc3ccc(O)cc3)C(=O)N(Cc3cccc4c(C(=O)N5CCC(N(C)C)CC5)cn(C)c34)C[C@@H]2N1C(=O)NCc1ccccc1` [Compound E-61] the IC50 was 2.23 µM. `C=CCN1CC(=O)N2[C@@H](Cc3ccc(O)cc3)C(=O)N(Cc3cccc4c(C(=O)N5CCN(C6CCN(C)CC6)CC5)cn(C)c34)C[C@@H]2N1C(=O)NCc1ccccc1` [Compound E-64] was tested, and the IC50 was 8.55 µM. Work on `C=CCN1CC(=O)N2[C@@H](Cc3ccc(O)cc3)C(=O)N(Cc3cccc4c(C(=O)N5CC6CCN(C)C6C5)cn(C)c34)C[C@@H]2N1C(=O)NCc1ccccc1` (stereo partly shown) [Compound E-68] yielded an IC50 of 2.45 µM. For `C=CCN1CC(=O)N2[C@@H](Cc3ccc(O)cc3)C(=O)N(Cc3cccc4c(C(=O)N5CCC6CN(C)CC65)cn(C)c34)C[C@@H]2N1C(=O)NCc1ccccc1` (stereo partly shown) [Compound E-69], the IC50 was 4.49 µM. In the case of `C=CCN1CC(=O)N2[C@@H](Cc3ccc(O)cc3)C(=O)N(Cc3cccc4c(C(=O)N5CC(O)C5)cn(C)c34)C[C@@H]2N1C(=O)NCc1ccccc1` [Compound E-70], the IC50 is reported as 18.3 µM. With `C=CCN1CC(=O)N2[C@@H](Cc3ccc(O)cc3)C(=O)N(Cc3cccc4c(C(=O)N5CC(N6CCOCC6)C5)cn(C)c34)C[C@@H]2N1C(=O)NCc1ccccc1` [Compound E-72] the IC50 was 5.99 µM. `C=CCN1CC(=O)N2[C@@H](Cc3ccc(O)cc3)C(=O)N(Cc3cccc4c(C(=O)N(C)C)cn(C)c34)C[C@@H]2N1C(=O)NCc1ccccc1` [Compound F-1] showed an IC50 of 3.16 µM. In the case of `C=CCN1CC(=O)N2[C@@H](Cc3ccc(O)cc3)C(=O)N(Cc3cccc4c(C(=O)NCCCO)cn(C)c34)C[C@@H]2N1C(=O)NCc1ccccc1` [Compound F-4], the IC50 is reported as 16.2 µM. For `C=CCN1CC(=O)N2[C@@H](Cc3ccc(O)cc3)C(=O)N(Cc3cccc4c(C(=O)NCCOCCO)cn(C)c34)C[C@@H]2N1C(=O)NCc1ccccc1` [Compound F-7], the IC50 was 16.4 µM. `C=CCN1CC(=O)N2[C@@H](Cc3ccc(O)cc3)C(=O)N(Cc3cccc4c(C(=O)NCCN(C)C)cn(C)c34)C[C@@H]2N1C(=O)NCc1ccccc1` [Compound F-13] gave an IC50 of 7.87 µM. `C=CCN1CC(=O)N2[C@@H](Cc3ccc(O)cc3)C(=O)N(Cc3cccc4c(C(=O)NCCN(CC)CC)cn(C)c34)C[C@@H]2N1C(=O)NCc1ccccc1` [Compound F-14] gave an IC50 of 3.64 µM. `C=CCN1CC(=O)N2[C@@H](Cc3ccc(O)cc3)C(=O)N(Cc3cccc4c(C(=O)NCCCN(C)C)cn(C)c34)C[C@@H]2N1C(=O)NCc1ccccc1` [Compound F-18] showed an IC50 of 17.9 µM. Compound `C=CCN1CC(=O)N2[C@@H](Cc3ccc(O)cc3)C(=O)N(Cc3cccc4c(C(=O)N(CCO)CCNCCO)cn(C)c34)C[C@@H]2N1C(=O)NCc1ccccc1` [Compound F-20] has an IC50 of 2.89 µM. Work on `C=CCN1CC(=O)N2[C@@H](Cc3ccc(O)cc3)C(=O)N(Cc3cccc4c(C(=O)N[C@H](C)C(=O)OC)cn(C)c34)C[C@@H]2N1C(=O)NCc1ccccc1` [Compound F-21] yielded an IC50 of 10.9 µM. Work on `C=CCN1CC(=O)N2[C@@H](Cc3ccc(O)cc3)C(=O)N(Cc3cccc4c(C(=O)NCCC(=O)OCC)cn(C)c34)C[C@@H]2N1C(=O)NCc1ccccc1` [Compound F-22] yielded an IC50 of 3.58 µM. In the case of `C=CCN1CC(=O)N2[C@@H](Cc3ccc(O)cc3)C(=O)N(Cc3cccc4c(C(=O)NCCCC(=O)OC)cn(C)c34)C[C@@H]2N1C(=O)NCc1ccccc1` [Compound F-23], the IC50 is reported as 3.46 µM. `C=CCN1CC(=O)N2[C@@H](Cc3ccc(O)cc3)C(=O)N(Cc3cccc4c(C(=O)NCCN5CCOCC5)cn(C)c34)C[C@@H]2N1C(=O)NCc1ccccc1` [Compound F-25] gave an IC50 of 8.5 µM. Work on `C=CCN1CC(=O)N2[C@@H](Cc3ccc(O)cc3)C(=O)N(Cc3cccc4c(C(=O)NCCN5CCN(C)CC5)cn(C)c34)C[C@@H]2N1C(=O)NCc1ccccc1` [Compound F-27] yielded an IC50 of 11.5 µM. `C=CCN1CC(=O)N2[C@@H](Cc3ccc(O)cc3)C(=O)N(Cc3cccc4c(C(=O)N(C)CCN5CCN(C)CC5)cn(C)c34)C[C@@H]2N1C(=O)NCc1ccccc1` [Compound F-28] gave an IC50 of 7.8 µM. `C=CCN1CC(=O)N2[C@@H](Cc3ccc(O)cc3)C(=O)N(Cc3cccc4c(C(=O)NCCCN5CCOCC5)cn(C)c34)C[C@@H]2N1C(=O)NCc1ccccc1` [Compound F-29] gave an IC50 of 1.1 µM. `C=CCN1CC(=O)N2[C@@H](Cc3ccc(O)cc3)C(=O)N(Cc3cccc4c(C(=O)NCCCN5CCN(C)CC5)cn(C)c34)C[C@@H]2N1C(=O)NCc1ccccc1` [Compound F-30] showed an IC50 of 2.54 µM. With `C=CCN1CC(=O)N2[C@@H](Cc3ccc(O)cc3)C(=O)N(Cc3cccc4c(C(=O)N(C)CC(=O)N5CCN(C)CC5)cn(C)c34)C[C@@H]2N1C(=O)NCc1ccccc1` [Compound F-32] the IC50 was 5.04 µM. For `C=CCN1CC(=O)N2[C@@H](Cc3ccc(O)cc3)C(=O)N(Cc3cccc4c(C(=O)N(C)CCn5ccnc5C)cn(C)c34)C[C@@H]2N1C(=O)NCc1ccccc1` [Compound F-36], the IC50 was 2.48 µM. Work on `C=CCN1CC(=O)N2[C@@H](Cc3ccc(O)cc3)C(=O)N(Cc3cccc4c(C(=O)N(C)NC)cn(C)c34)C[C@@H]2N1C(=O)NCc1ccccc1` [Compound F-53] yielded an IC50 of 2.33 µM. For `C=CCN1CC(=O)N2[C@@H](Cc3ccc(O)cc3)C(=O)N(Cc3cccc4c(C(=O)NNCC(=O)OCC)cn(C)c34)C[C@@H]2N1C(=O)NCc1ccccc1` [Compound F-55], the IC50 was 6.15 µM. `C=CCN1CC(=O)N2[C@@H](Cc3ccc(O)cc3)C(=O)N(Cc3cccc4c(C(=O)NN5CCCC5)cn(C)c34)C[C@@H]2N1C(=O)NCc1ccccc1` [Compound F-56] was tested, and the IC50 was 17.4 µM. Work on `C=CCN1CC(=O)N2[C@@H](Cc3ccc(O)cc3)C(=O)N(Cc3cccc4c(C(=O)NN5CCCCC5)cn(C)c34)C[C@@H]2N1C(=O)NCc1ccccc1` [Compound F-57] yielded an IC50 of 4.78 µM. `C=CCN1CC(=O)N2[C@@H](Cc3ccc(O)cc3)C(=O)N(Cc3cccc4c(C(=O)NN5CCOCC5)cn(C)c34)C[C@@H]2N1C(=O)NCc1ccccc1` [Compound F-58] showed an IC50 of 22.3 µM. In the case of `C=CCN1CC(=O)N2[C@@H](Cc3ccc(O)cc3)C(=O)N(Cc3cccc4c(C(=O)NN5CCN(C6CCCC6)CC5)cn(C)c34)C[C@@H]2N1C(=O)NCc1ccccc1` [Compound F-59], the IC50 is reported as 2.39 µM. In the case of `C=CCN1CC(=O)N2[C@@H](Cc3ccc(O)cc3)C(=O)N(Cc3cccc4c(C(=O)NNc5ccccc5)cn(C)c34)C[C@@H]2N1C(=O)NCc1ccccc1` [Compound F-60], the IC50 is reported as 6.8 µM. In the case of `C=CCN1CC(=O)N2[C@@H](Cc3ccc(O)cc3)C(=O)N(Cc3cccc4c(C(=O)NC5CCN(CCCO)CC5)cn(C)c34)C[C@@H]2N1C(=O)NCc1ccccc1` [Compound F-63], the IC50 is reported as 9.71 µM. In the case of `C=CCN1CC(=O)N2[C@@H](Cc3ccc(O)cc3)C(=O)N(Cc3cccc4c(C(=O)NC5CCN(C(C)=O)CC5)cn(C)c34)C[C@@H]2N1C(=O)NCc1ccccc1` [Compound F-64], the IC50 is reported as 5.12 µM. Compound `C=CCN1CC(=O)N2[C@@H](Cc3ccc(O)cc3)C(=O)N(Cc3cccc4c(C(=O)NC5CCN(C(=O)CCO)CC5)cn(C)c34)C[C@@H]2N1C(=O)NCc1ccccc1` [Compound F-65] has an IC50 of 6.87 µM. For `C=CCN1CC(=O)N2[C@@H](Cc3ccc(O)cc3)C(=O)N(Cc3cccc4c(C(=O)Nc5ccc(F)nc5)cn(C)c34)C[C@@H]2N1C(=O)NCc1ccccc1` [Compound G-1], the IC50 was 2.97 µM. `C=CCN1CC(=O)N2C(CN(Cc3cccc4c(C(=O)Nc5ccc(NCC(O)CO)nc5)cn(C)c34)C(=O)[C@@H]2Cc2ccc(O)cc2)N1C(=O)NCc1ccccc1` (stereo partly shown) [Compound G-21] showed an IC50 of 2.55 µM. Work on `C=CCN1CC(=O)N2C(CN(Cc3cccc4c(C(=O)Nc5ccc(NCCN(CC)CC)nc5)cn(C)c34)C(=O)[C@@H]2Cc2ccc(O)cc2)N1C(=O)NCc1ccccc1` (stereo partly shown) [Compound G-24] yielded an IC50 of 4.53 µM. Compound `C=CCN1CC(=O)N2C(Cc3ccc(O)cc3)C(=O)N(Cc3cccc4c(C(=O)Nc5ccc(NCCN(C(C)C)C(C)C)nc5)cn(C)c34)CC2N1C(=O)NCc1ccccc1` (stereo not shown) [Compound G-25] has an IC50 of 4.05 µM. For `C=CCN1CC(=O)N2C(Cc3ccc(O)cc3)C(=O)N(Cc3cccc4c(C(=O)Nc5ccc(N(CCN(CC)CC)CCN(CC)CC)nc5)cn(C)c34)CC2N1C(=O)NCc1ccccc1` (stereo not shown) [Compound G-26], the IC50 was 5.35 µM. With `C=CCN1CC(=O)N2C(CN(Cc3cccc4c(C(=O)Nc5ccc(NCCN6CCC(O)CC6)nc5)cn(C)c34)C(=O)[C@@H]2Cc2ccc(O)cc2)N1C(=O)NCc1ccccc1` (stereo partly shown) [Compound G-29] the IC50 was 5.8 µM.
